In ChEMBL document CHEMBL4680099, “Discovery of Leucyladenylate Sulfamates as Novel Leucyl-tRNA Synthetase (LRS)-Targeted Mammalian Target of Rapamycin Complex 1 (mTORC1) Inhibitors” (J Med Chem, 2016):
Activity calls are given as the source filed them. The calls are words filed in the database; no cut-off is given here.

Tests used:
mTORC1 (Homo sapiens) [1] = biological target: T1, mTORC1 (Homo sapiens) (UniProt P42345+Q8N122+Q9BVC4); conditions: HEK293, dose 100.0 nM
Description: Inhibition of mTORC1 activation in HEK293 cells assessed as reduction leucine-induced S6K phosphorylation at 100 nM by immunoblotting analysis

[2] = biological target: T2, Leucine--tRNA ligase, cytoplasmic (Homo sapiens, UniProt Q9P2J5); assay: Inhibition of catalytic activity of LRS (unknown origin) by aminoleucylation assay
Target sequence in this assay (Q9P2J5 whole entry): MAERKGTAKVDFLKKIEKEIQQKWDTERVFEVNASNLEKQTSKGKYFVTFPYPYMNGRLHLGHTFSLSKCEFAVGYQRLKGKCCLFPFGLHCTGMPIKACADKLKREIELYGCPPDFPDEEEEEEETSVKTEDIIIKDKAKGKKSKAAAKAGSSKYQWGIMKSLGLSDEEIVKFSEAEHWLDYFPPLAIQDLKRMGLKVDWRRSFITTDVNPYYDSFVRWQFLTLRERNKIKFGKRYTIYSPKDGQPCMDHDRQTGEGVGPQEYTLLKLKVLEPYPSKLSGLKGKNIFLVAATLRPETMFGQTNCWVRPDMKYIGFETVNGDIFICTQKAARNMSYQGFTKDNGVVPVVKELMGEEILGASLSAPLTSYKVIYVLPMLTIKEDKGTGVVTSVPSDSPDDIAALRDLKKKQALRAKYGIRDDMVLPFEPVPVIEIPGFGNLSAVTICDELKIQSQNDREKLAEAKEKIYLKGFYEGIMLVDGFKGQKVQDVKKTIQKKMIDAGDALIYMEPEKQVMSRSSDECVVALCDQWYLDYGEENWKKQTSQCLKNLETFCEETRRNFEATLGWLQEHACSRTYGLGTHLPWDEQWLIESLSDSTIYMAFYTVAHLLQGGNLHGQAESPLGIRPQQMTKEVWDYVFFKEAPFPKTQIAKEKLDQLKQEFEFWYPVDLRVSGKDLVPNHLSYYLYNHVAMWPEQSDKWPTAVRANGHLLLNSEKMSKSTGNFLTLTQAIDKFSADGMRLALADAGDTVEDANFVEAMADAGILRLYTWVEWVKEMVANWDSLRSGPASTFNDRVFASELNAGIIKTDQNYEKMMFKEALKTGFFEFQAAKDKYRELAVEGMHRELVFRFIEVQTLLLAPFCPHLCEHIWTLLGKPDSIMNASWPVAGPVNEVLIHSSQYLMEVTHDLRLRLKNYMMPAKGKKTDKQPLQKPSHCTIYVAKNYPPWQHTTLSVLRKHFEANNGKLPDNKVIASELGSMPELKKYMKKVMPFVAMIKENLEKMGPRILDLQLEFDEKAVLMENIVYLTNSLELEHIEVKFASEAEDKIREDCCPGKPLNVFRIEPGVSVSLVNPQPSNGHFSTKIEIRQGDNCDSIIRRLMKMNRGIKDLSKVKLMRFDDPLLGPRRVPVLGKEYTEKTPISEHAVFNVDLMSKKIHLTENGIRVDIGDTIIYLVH

[3] = biological target: T2, Leucine--tRNA ligase, cytoplasmic; assay: Inhibition of catalytic activity of LRS in HEK293 cells assessed as reduction in mTORC1 activation by measuring leucine-induced S6K phosphorylation at 12.5 to 200 uM by immunoblotting analysis; format: cell-based; conditions: dose 12.5-200 µM
Target sequence in this assay (Q9P2J5 whole entry, looked up): as the sequence (Q9P2J5 whole entry) above

mTORC1 (Homo sapiens) [4] = biological target: T1, mTORC1 (Homo sapiens); assay: Inhibition of flag-tagged mTORC1 (unknown origin) at 200 uM; format: protein-complex assay
A549 = assay: Cytotoxicity in human A549 cells by sulforhodamine B colorimetric assay; format: functional, cell-based
HCT-116 = assay: Cytotoxicity in human HCT-116 cells by sulforhodamine B colorimetric assay; format: functional, cell-based
K562 = assay: Cytotoxicity in human K562 cells by sulforhodamine B colorimetric assay; format: functional, cell-based
MDA-MB-231 = assay: Cytotoxicity in human MDA-MB-231 cells by sulforhodamine B colorimetric assay; format: functional, cell-based
SK-HEP1 = assay: Cytotoxicity in human SK-HEP1 cells by sulforhodamine B colorimetric assay; format: functional, cell-based
SNU-638 = assay: Cytotoxicity in human SNU-638 cells by sulforhodamine B colorimetric assay; format: functional, cell-based
MRC5 = assay: Cytotoxicity in human MRC5 cells by sulforhodamine B colorimetric assay; format: cell-based

T1 sequence (Q8N122 whole entry, looked up, other chains not shown): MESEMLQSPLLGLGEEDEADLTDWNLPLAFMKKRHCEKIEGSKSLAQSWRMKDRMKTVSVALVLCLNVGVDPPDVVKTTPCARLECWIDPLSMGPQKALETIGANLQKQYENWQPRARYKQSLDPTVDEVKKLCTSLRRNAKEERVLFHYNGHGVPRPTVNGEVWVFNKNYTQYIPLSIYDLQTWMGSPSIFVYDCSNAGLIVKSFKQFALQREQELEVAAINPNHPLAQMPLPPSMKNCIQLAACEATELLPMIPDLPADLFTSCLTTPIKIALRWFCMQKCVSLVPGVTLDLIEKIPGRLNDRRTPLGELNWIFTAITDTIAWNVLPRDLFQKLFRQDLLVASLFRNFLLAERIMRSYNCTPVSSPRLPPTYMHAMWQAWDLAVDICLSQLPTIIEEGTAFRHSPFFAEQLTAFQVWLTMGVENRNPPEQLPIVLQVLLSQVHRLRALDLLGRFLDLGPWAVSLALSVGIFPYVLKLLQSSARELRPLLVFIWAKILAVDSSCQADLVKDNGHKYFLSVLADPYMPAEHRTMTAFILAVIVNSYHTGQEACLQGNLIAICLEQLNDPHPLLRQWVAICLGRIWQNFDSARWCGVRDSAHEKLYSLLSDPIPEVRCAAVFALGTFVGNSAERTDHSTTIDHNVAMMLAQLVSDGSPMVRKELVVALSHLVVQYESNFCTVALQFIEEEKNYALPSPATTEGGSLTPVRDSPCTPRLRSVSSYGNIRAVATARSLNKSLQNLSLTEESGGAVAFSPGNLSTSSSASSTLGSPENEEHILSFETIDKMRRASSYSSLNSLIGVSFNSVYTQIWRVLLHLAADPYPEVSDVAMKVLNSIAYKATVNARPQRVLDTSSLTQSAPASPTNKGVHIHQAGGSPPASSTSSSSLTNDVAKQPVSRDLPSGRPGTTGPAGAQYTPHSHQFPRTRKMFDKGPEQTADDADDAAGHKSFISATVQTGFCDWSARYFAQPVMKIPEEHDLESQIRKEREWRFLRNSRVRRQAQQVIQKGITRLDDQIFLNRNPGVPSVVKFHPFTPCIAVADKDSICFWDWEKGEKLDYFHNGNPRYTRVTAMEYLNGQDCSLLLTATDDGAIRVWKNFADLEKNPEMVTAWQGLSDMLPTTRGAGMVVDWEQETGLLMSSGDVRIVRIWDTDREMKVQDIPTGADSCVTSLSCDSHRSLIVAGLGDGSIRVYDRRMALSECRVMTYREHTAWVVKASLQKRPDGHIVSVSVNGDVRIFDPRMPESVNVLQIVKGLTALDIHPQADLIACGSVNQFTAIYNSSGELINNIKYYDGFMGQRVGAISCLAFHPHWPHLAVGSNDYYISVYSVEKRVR
T1 sequence (Q9BVC4 whole entry, looked up, other chains not shown): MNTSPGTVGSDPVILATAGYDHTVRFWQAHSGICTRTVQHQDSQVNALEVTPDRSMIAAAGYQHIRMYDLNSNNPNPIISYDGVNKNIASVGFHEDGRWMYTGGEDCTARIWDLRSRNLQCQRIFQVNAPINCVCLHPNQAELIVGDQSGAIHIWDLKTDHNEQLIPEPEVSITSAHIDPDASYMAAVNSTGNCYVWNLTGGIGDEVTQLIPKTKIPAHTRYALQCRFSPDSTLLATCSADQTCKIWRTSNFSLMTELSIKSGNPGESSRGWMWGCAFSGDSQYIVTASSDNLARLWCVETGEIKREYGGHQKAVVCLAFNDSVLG

Structure (SMILES)	inhibition (mTORC1 (Homo sapiens) [1])	IC50 [2] [nM]	inhibition [3]	inhibition (mTORC1 (Homo sapiens) [4])	IC50 (A549) [nM]	IC50 (HCT-116) [nM]	IC50 (K562) [nM]	IC50 (MDA-MB-231) [nM]	IC50 (SK-HEP1) [nM]	IC50 (SNU-638) [nM]	IC50 (MRC5) [nM]
CO[C@H]1C[C@@H]2CC[C@@H](C)[C@@](O)(O2)C(=O)C(=O)N2CCCC[C@H]2C(=O)O[C@H]([C@H](C)C[C@@H]2CC[C@@H](O)[C@H](OC)C2)CC(=O)[C@H](C)/C=C(\C)[C@@H](O)[C@@H](OC)C(=O)[C@H](C)C[C@H](C)/C=C/C=C/C=C/1C	Active										
CC(C)C[C@H](O)C(=O)NS(=O)(=O)OC[C@H]1O[C@@H](n2cnc3c(N)nc(I)nc32)[C@H](O)[C@@H]1O		337	Dose-dependent effect	inactive	1750	540	1060	12600	5630	5700	> 50000
CC(C)[C@@H](O)[C@H](O)C(=O)NS(=O)(=O)OC[C@H]1O[C@@H](n2cnc3c(N)ncnc32)[C@H](O)[C@@H]1O		70	Dose-dependent effect	inactive	1640	1440	2220	7010	6810	8980	> 50000
CC(C)C[C@H](N)C(=O)NS(=O)(=O)OC[C@H]1O[C@@H](n2cnc3c(N)ncnc32)[C@H](O)[C@@H]1O [LEUSA]		22.3	inactive		590	240	400	730	540	840	5900
COc1cc([C@@H]2c3cc4c(cc3[C@@H](O[C@@H]3O[C@@H]5CO[C@@H](C)O[C@H]5[C@H](O)[C@H]3O)[C@H]3COC(=O)[C@H]23)OCO4)cc(OC)c1O [ETOPOSIDE]					240	1250	1790	7350	250	560	
